According to patent publication EP4707284A1, “HETEROCYCLIC COMPOUND AND USE THEREOF” (Otsuka Pharmaceutical Co., Ltd., priority 2023, dated 2024):

Format: physicochemical
Conditions: Tris-hydrochloric acid buffer (pH 7.5) 50 mmol/L, magnesium chloride 5 mmol/L, evaluation compound 1 µmol/L, 37°C, 60 minutes, average of duplicate
Experimental: The conversion from the evaluation compounds to brexpiprazole in a buffer (i.e., the stability of the evaluation compounds) was evaluated.
The Example 1 compound was dissolved in acetonitrile/water (1:1, v/v) to 10 mmol/L and further diluted with acetonitrile/water (1:1, v/v) to 100 µmol/L for use.
The other Example compounds and the Reference Example 5 compound to Reference Example 7 compound were each dissolved in DMSO to 10 mmol/L and further diluted with acetonitrile to 100 µmol/L for use, except for the following compounds.
The compounds of Examples 52, 95, 96, 117, and 130 (EX 52, EX 95, EX 96, EX 117, and EX 130) were dissolved in acetonitrile/water (8:2, v/v) to 10 mmol/L and further diluted with acetonitrile to 100 µmol/L for use.
The compound of Example 97 (EX 97) was dissolved in acetonitrile/water (8:2, v/v) to 10 mmol/L and further diluted with acetonitrile/water (8:2, v/v) to 100 µmol/L for use.
The compounds of Examples 15 and 116 (EX 15 and EX 116) were dissolved in DMSO to 1 mmol/L and further diluted with acetonitrile to 100 µmol/L for use.
These evaluation compound solutions were prepared at the time of use.
The reaction was conducted by preparing each reaction solution such that the final concentration of each component was as follows. The test was conducted in duplicate.
For the compounds of Examples 1 to 8, 10 to 19, 26 to 27, 37, 50, 87 to 89, 91, 116, 121, 123, 150, and 151 (EX 1 to EX 8, EX 10 to EX 19, EX 26 to EX 27, EX 37, EX 50, EX 87 to EX 89, EX 91, EX 116, EX 121, EX 123, EX 150, and EX 151), and the compounds of Reference Examples 5 to 7 (REX 5 to REX 7), the reaction solution without the evaluation compound (198 µl) was pre-incubated at 37°C for 3 minutes, and then each of the evaluation compound solutions (2 µl) was added and stirred; thereafter, the reaction was started at 37°C. At 0 minutes or 60 minutes after the start of the reaction, the reaction was stopped by adding and stirring a reaction stop solution (1000 µl) composed of acetonitrile/isopropanol (4:1, v/v) containing internal standard substances. However, the 0-minute reaction sample (198 µl) was prepared by adding the evaluation compound (2 µl) after adding the reaction stop solution (1000 µl). The samples after stopping the reaction were used as the measurement samples. Calibration curve samples with the same composition were prepared (final concentrations of the evaluation compounds and brexpiprazole: 0.01, 0.1, and 1 µmol/L, with the proviso that for the evaluation compounds only, the 0-minute reaction samples were also used as calibration curve samples for 1 µmol/L).
For the compounds of Examples 24 to 25, 28 to 29, 32 to 36, 40 to 49, 51 to 60, 62 to 64, 66 to 77, 80 to 86, 90, 92 to 111, 113, 115, 117 to 120, 122, 124 to 130, 132 to 147, and 152 to 160 (EX 24 to EX 25, EX 28 to EX 29, EX 32 to EX 36, EX 40 to EX 49, EX 51 to EX 60, EX 62 to EX 64, EX 66 to EX 77, EX 80 to EX 86, EX 90, EX 92 to EX 111, EX 113, EX 115, EX 117 to EX 120, EX 122, EX 124 to EX 130, EX 132 to EX 147, and EX 152 to EX 160), the reaction solution without the evaluation compound (148.5 µl) was pre-incubated at 37°C for 3 minutes, and then each of the evaluation compound solutions (1.5 µl) was added and stirred; thereafter, the reaction was started at 37°C. At 0 minutes or 60 minutes after the start of the reaction, the reaction was stopped by adding and stirring a reaction stop solution (600 µl) composed of acetonitrile/isopropanol (4:1, v/v) containing internal standard substances. However, the 0-minute reaction sample (148.5 µl) was prepared by adding the evaluation compound (1.5 µl) after adding the reaction stop solution (600 µl). The samples after stopping the reaction were used as the measurement samples. […]
In the case of `O=c1ccc2ccc(OCCCC[N+]3(COP(=O)([O-])OC[C@H]4CC[C@H](CO)CC4)CCN(c4cccc5sccc45)CC3)cc2[nH]1` [EX 86], the “Concentration of brexpiprazole formed” value is reported as 0.00 µM and the “Concentration of evaluation compound decreased” value is reported as 0.05 µM. In the case of `CCOCCOC(=O)OCOP(=O)([O-])OC[N+]1(CCCCOc2ccc3ccc(=O)[nH]c3c2)CCN(c2cccc3sccc23)CC1` [EX 132], the “Concentration of brexpiprazole formed” value is reported as 0.00 µM and the “Concentration of evaluation compound decreased” value is reported as 0.13 µM. In the case of `CCOC(=O)[C@H](C)NP(=O)([O-])OC[N+]1(CCCCOc2ccc3ccc(=O)[nH]c3c2)CCN(c2cccc3sccc23)CC1` [EX 156], the “Concentration of brexpiprazole formed” value is reported as 0.00 µM and the “Concentration of evaluation compound decreased” value is reported as 0.17 µM. In the case of `CC1(C)OCC(COC(=O)CCCCC(=O)OCOP(=O)([O-])OC[N+]2(CCCCOc3ccc4ccc(=O)[nH]c4c3)CCN(c3cccc4sccc34)CC2)CO1` [EX 75], the “Concentration of brexpiprazole formed” value is reported as 0.00 µM and the “Concentration of evaluation compound decreased” value is reported as 0.07 µM. For `COCCCOC(=O)OCOP(=O)([O-])OC[N+]1(CCCCOc2ccc3ccc(=O)[nH]c3c2)CCN(c2cccc3sccc23)CC1` [EX 139], the “Concentration of brexpiprazole formed” value was 0.00 µM and the “Concentration of evaluation compound decreased” value was 0.12 µM. With `CCOC(=O)C[C@@H](OP(=O)([O-])OC[N+]1(CCCCOc2ccc3ccc(=O)[nH]c3c2)CCN(c2cccc3sccc23)CC1)C(=O)OCC` [EX 111] the “Concentration of brexpiprazole formed” value was 0.00 µM and the “Concentration of evaluation compound decreased” value was 0.02 µM. In the case of `CCOC(=O)CCOC(=O)OCOP(=O)([O-])OC[N+]1(CCCCOc2ccc3ccc(=O)[nH]c3c2)CCN(c2cccc3sccc23)CC1` [EX 143], the “Concentration of brexpiprazole formed” value is reported as 0.00 µM and the “Concentration of evaluation compound decreased” value is reported as 0.05 µM. With `O=c1ccc2ccc(OCCCC[N+]3(COP(=O)([O-])OCC4(CO)CC4)CCN(c4cccc5sccc45)CC3)cc2[nH]1` [EX 47] the “Concentration of brexpiprazole formed” value was 0.00 µM and the “Concentration of evaluation compound decreased” value was 0.00 µM. With `CC(C)OCCOC(=O)OCOP(=O)([O-])OC[N+]1(CCCCOc2ccc3ccc(=O)[nH]c3c2)CCN(c2cccc3sccc23)CC1` [EX 133] the “Concentration of brexpiprazole formed” value was 0.00 µM and the “Concentration of evaluation compound decreased” value was 0.14 µM. With `O=c1ccc2ccc(OCCCC[N+]3(COP(=O)([O-])OCCCCCCCCO)CCN(c4cccc5sccc45)CC3)cc2[nH]1` [EX 11, (4-(benzo[b]thiophen-4-yl)-1-(4-((2-oxo-1,2-dihydroquinolin-7-yl)oxy)butyl)piperazin-1-ium-1-yl)methyl (8-hydroxyoctyl) phosphate] the “Concentration of brexpiprazole formed” value was 0.00 µM and the “Concentration of evaluation compound decreased” value was 0.03 µM. For `CCCCCCCC(=O)OCOP(=O)([O-])OC[N+]1(CCCCOc2ccc3ccc(=O)[nH]c3c2)CCN(c2cccc3sccc23)CC1` [EX 27], the “Concentration of brexpiprazole formed” value was 0.00 µM and the “Concentration of evaluation compound decreased” value was 0.00 µM. In the case of `CC(C)OC(=O)[C@H](C)NP(=O)([O-])OC[N+]1(CCCCOc2ccc3ccc(=O)[nH]c3c2)CCN(c2cccc3sccc23)CC1` [EX 159], the “Concentration of brexpiprazole formed” value is reported as 0.00 µM and the “Concentration of evaluation compound decreased” value is reported as 0.06 µM. For `CC1(C)OCC(NC(=O)CCCC(=O)OCOP(=O)([O-])OC[N+]2(CCCCOc3ccc4ccc(=O)[nH]c4c3)CCN(c3cccc4sccc34)CC2)CO1` [EX 74], the “Concentration of brexpiprazole formed” value was 0.00 µM and the “Concentration of evaluation compound decreased” value was 0.05 µM. For `CC(C)NC(=O)CCCC(=O)OCOP(=O)([O-])OC[N+]1(CCCCOc2ccc3ccc(=O)[nH]c3c2)CCN(c2cccc3sccc23)CC1` [EX 73], the “Concentration of brexpiprazole formed” value was 0.00 µM and the “Concentration of evaluation compound decreased” value was 0.13 µM. In the case of `COCCOCOCCCCOP(=O)([O-])OC[N+]1(CCCCOc2ccc3ccc(=O)[nH]c3c2)CCN(c2cccc3sccc23)CC1` [EX 53], the “Concentration of brexpiprazole formed” value is reported as 0.00 µM and the “Concentration of evaluation compound decreased” value is reported as 0.06 µM. With `COCCOP(=O)([O-])OC[N+]1(CCCCOc2ccc3ccc(=O)[nH]c3c2)CCN(c2cccc3sccc23)CC1` [EX 12, (4-(benzo[b]thiophen-4-yl)-1-(4-((2-oxo-1,2-dihydroquinolin-7-yl)oxy)butyl)piperazin-1-ium-1-yl)methyl (2-methoxyethyl) phosphate] the “Concentration of brexpiprazole formed” value was 0.00 µM and the “Concentration of evaluation compound decreased” value was 0.02 µM. For `CCCCOCCOP(=O)([O-])OC[N+]1(CCCCOc2ccc3ccc(=O)[nH]c3c2)CCN(c2cccc3sccc23)CC1` [EX 96], the “Concentration of brexpiprazole formed” value was 0.00 µM and the “Concentration of evaluation compound decreased” value was 0.03 µM. In the case of `CCOC(=O)[C@H](C)OP(=O)([O-])OC[N+]1(CCCCOc2ccc3ccc(=O)[nH]c3c2)CCN(c2cccc3sccc23)CC1` [EX 104], the “Concentration of brexpiprazole formed” value is reported as 0.00 µM and the “Concentration of evaluation compound decreased” value is reported as 0.20 µM. For `COCCCCOC(=O)OCOP(=O)([O-])OC[N+]1(CCCCOc2ccc3ccc(=O)[nH]c3c2)CCN(c2cccc3sccc23)CC1` [EX 36], the “Concentration of brexpiprazole formed” value was 0.00 µM and the “Concentration of evaluation compound decreased” value was -0.04 µM. With `CCOCCCOP(=O)([O-])OC[N+]1(CCCCOc2ccc3ccc(=O)[nH]c3c2)CCN(c2cccc3sccc23)CC1` [EX 97] the “Concentration of brexpiprazole formed” value was 0.00 µM and the “Concentration of evaluation compound decreased” value was 0.09 µM. For `C[C@H](NP(=O)([O-])OC[N+]1(CCCCOc2ccc3ccc(=O)[nH]c3c2)CCN(c2cccc3sccc23)CC1)C(N)=O` [EX 158], the “Concentration of brexpiprazole formed” value was 0.00 µM and the “Concentration of evaluation compound decreased” value was 0.07 µM. For `O=c1ccc2ccc(OCCCC[N+]3(COP(=O)([O-])OCCCOc4ccccc4)CCN(c4cccc5sccc45)CC3)cc2[nH]1` [EX 84], the “Concentration of brexpiprazole formed” value was 0.00 µM and the “Concentration of evaluation compound decreased” value was 0.01 µM. With `COCC1CCC(COP(=O)([O-])OC[N+]2(CCCCOc3ccc4ccc(=O)[nH]c4c3)CCN(c3cccc4sccc34)CC2)CC1` (stereo not drawn) [EX 54] the “Concentration of brexpiprazole formed” value was 0.00 µM and the “Concentration of evaluation compound decreased” value was 0.14 µM. In the case of `CCOC(=O)CCCCCOC(=O)OCOP(=O)([O-])OC[N+]1(CCCCOc2ccc3ccc(=O)[nH]c3c2)CCN(c2cccc3sccc23)CC1` [EX 144], the “Concentration of brexpiprazole formed” value is reported as 0.00 µM and the “Concentration of evaluation compound decreased” value is reported as 0.12 µM. For `COP(=O)([O-])OC[N+]1(CCCCOc2ccc3ccc(=O)[nH]c3c2)CCN(c2cccc3sccc23)CC1` [EX 87], the “Concentration of brexpiprazole formed” value was 0.00 µM and the “Concentration of evaluation compound decreased” value was 0.00 µM. With `CCCCCCCC(=O)OC(C)OP(=O)([O-])OC[N+]1(CCCCOc2ccc3ccc(=O)[nH]c3c2)CCN(c2cccc3sccc23)CC1` (stereo not drawn) [EX 26] the “Concentration of brexpiprazole formed” value was 0.00 µM and the “Concentration of evaluation compound decreased” value was 0.05 µM. In the case of `CC(C)COP(=O)([O-])OC[N+]1(CCCCOc2ccc3ccc(=O)[nH]c3c2)CCN(c2cccc3sccc23)CC1` [EX 90], the “Concentration of brexpiprazole formed” value is reported as 0.00 µM and the “Concentration of evaluation compound decreased” value is reported as -0.03 µM. With `CCC(=O)OCOP(=O)([O-])OC[N+]1(CCCCOc2ccc3ccc(=O)[nH]c3c2)CCN(c2cccc3sccc23)CC1` [EX 120] the “Concentration of brexpiprazole formed” value was 0.00 µM and the “Concentration of evaluation compound decreased” value was 0.05 µM. For `COc1ccc(C(=O)OCCCCCCOP(=O)([O-])OC[N+]2(CCCCOc3ccc4ccc(=O)[nH]c4c3)CCN(c3cccc4sccc34)CC2)cc1` [EX 58], the “Concentration of brexpiprazole formed” value was 0.00 µM and the “Concentration of evaluation compound decreased” value was 0.04 µM. For `Cc1cccc(C(=O)OCCCCCCOP(=O)([O-])OC[N+]2(CCCCOc3ccc4ccc(=O)[nH]c4c3)CCN(c3cccc4sccc34)CC2)n1` [EX 59], the “Concentration of brexpiprazole formed” value was 0.00 µM and the “Concentration of evaluation compound decreased” value was 0.05 µM.
